By IC50 is commonly meant the concentration at which inhibition is half-maximal.

The structures appear in SMILES notation. A value given as a limit tells only on which side of the number the result lay.

This is an account of results in patent publication US8940742B2, “Heterocyclic compounds and uses thereof” (Infinity Pharmaceuticals, Inc., priority 2012, dated 2015).

Experiment [1] has as its target T1, PI3K α (Homo sapiens, UniProt P42336).
T1 construct: purchased Millipore
Put plainly: PI3-Kinase Promega ADP-Glo Max assay. Format: biochemical. Particulars: 20 nM kinase, 3 mM ATP, 500 uM diC8-PtdInsP. The procedure, abridged:
(§1)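 Human class I PI3K (20 nM α or δ, 40 nM β) pre-incubated 15 min with compound in HEPES pH 7.4 buffer with MgCl2, then reacted 2 h at room temperature with 3 mM ATP and 500 uM diC8-PtdInsP. ADP measured by ADP-Glo Max luminescence; % inhibition fitted to 4-parameter logistic for IC50.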
(In ADP-Glo the light output rises with the ADP produced.)

In experiment [2] the target is T2, PI3K β (Homo sapiens, UniProt P42338).
T2 construct: purchased Millipore
Description: PI3-Kinase Promega ADP-Glo Max assay. The class given is biochemical. Particulars: 40 nM kinase, 3 mM ATP, 500 uM diC8-PtdInsP. The procedure, abridged:
as §1

Experiment [3] has as its target T3, PI3K δ (Homo sapiens, UniProt O00329).
T3 construct: purchased Millipore
Put plainly: PI3-Kinase Promega ADP-Glo Max assay. The class given is biochemical. Particulars: 20 nM kinase, 3 mM ATP, 500 uM diC8-PtdInsP. The procedure, abridged:
as §1

The target of experiment [4] is T4, PI3K γ (Homo sapiens, UniProt P48736).
T4 construct: purchased Millipore
Description: PI3-Kinase Promega ADP-Glo Max assay. Format: biochemical. Particulars: 40 nM kinase, 3 mM ATP, 500 uM diC8-PtdInsP. The procedure, abridged:
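Human class I PI3K reactions ran 2 hours at room temperature, followed by stop solution (40 min) and detection mix (1 hour) before luminescence reading.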

The target of experiment [5] is T5, Raw264.7 p110 γ (Mus musculus, UniProt Q9JHG7).
T5 construct: reduction of phospho-AKT in stimulated RAW 264.7 cells; endogenous in cells; host or cells: RAW264.7 macrophages
Put plainly: Raw264.7 p110 γ cellular assay (phospho-AKT). Conditions: serum-starved RAW264.7 cells stimulated with C5a. Format: cell-based. The source says:
(b) PI3K-γ Selective Assay
Briefly, serum-starved PAW264.7 cells are stimulated with a known GPCR agonist C5a. […] Cells can be treated with test compounds prior to, simultaneously with, or subsequent to the stimulation by C5a. RAW 264.7 cells respond to the complement component fragment C5a through activation of the C5a receptor, and the C5a receptor activates macrophages and induces cell migration.

Experiment [6] deals with RAJI p110 δ (Homo sapiens, UniProt O00329). Description: RAJI p110 δ cellular assay (phospho-AKT).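 Further: potency based on lowered phosphorylated AKT in RAJI cells, as a readout of PI3K-δ dependent B-cell receptor signaling.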
Description: (a) PI3K-δ Selective Assay
Reduction of phospho-AKT is indicative of compounds that may inhibit B-cell proliferation and function in certain diseases.

T5 sequence (Q9JHG7 whole entry): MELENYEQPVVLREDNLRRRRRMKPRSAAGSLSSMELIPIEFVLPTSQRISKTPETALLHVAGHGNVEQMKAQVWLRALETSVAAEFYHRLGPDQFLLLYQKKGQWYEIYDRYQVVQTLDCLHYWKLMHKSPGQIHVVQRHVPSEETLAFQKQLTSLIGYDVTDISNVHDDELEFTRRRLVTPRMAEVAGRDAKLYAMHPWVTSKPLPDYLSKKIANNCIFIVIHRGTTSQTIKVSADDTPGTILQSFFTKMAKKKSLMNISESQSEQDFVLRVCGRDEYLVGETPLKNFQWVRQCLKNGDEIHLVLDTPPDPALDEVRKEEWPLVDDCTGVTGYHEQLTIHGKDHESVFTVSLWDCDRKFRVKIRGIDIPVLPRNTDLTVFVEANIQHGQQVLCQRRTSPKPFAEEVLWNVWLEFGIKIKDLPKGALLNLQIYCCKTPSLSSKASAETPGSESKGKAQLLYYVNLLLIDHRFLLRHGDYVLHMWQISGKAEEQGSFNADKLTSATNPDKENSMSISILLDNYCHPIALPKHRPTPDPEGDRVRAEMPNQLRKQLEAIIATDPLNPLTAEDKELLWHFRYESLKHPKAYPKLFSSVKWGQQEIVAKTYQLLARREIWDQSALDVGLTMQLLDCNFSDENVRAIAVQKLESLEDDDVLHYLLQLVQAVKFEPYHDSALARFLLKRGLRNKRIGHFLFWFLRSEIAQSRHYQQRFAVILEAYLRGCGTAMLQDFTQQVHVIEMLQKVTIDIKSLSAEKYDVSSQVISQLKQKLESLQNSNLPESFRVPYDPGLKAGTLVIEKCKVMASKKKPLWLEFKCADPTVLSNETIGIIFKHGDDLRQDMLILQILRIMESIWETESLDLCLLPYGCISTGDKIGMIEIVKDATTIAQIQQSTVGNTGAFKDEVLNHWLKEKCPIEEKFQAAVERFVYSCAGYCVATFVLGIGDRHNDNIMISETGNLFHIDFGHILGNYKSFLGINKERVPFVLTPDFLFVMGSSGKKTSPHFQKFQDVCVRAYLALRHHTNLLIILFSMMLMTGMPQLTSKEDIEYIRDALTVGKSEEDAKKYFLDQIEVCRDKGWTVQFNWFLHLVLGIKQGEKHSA
T2 sequence (P42338 whole entry): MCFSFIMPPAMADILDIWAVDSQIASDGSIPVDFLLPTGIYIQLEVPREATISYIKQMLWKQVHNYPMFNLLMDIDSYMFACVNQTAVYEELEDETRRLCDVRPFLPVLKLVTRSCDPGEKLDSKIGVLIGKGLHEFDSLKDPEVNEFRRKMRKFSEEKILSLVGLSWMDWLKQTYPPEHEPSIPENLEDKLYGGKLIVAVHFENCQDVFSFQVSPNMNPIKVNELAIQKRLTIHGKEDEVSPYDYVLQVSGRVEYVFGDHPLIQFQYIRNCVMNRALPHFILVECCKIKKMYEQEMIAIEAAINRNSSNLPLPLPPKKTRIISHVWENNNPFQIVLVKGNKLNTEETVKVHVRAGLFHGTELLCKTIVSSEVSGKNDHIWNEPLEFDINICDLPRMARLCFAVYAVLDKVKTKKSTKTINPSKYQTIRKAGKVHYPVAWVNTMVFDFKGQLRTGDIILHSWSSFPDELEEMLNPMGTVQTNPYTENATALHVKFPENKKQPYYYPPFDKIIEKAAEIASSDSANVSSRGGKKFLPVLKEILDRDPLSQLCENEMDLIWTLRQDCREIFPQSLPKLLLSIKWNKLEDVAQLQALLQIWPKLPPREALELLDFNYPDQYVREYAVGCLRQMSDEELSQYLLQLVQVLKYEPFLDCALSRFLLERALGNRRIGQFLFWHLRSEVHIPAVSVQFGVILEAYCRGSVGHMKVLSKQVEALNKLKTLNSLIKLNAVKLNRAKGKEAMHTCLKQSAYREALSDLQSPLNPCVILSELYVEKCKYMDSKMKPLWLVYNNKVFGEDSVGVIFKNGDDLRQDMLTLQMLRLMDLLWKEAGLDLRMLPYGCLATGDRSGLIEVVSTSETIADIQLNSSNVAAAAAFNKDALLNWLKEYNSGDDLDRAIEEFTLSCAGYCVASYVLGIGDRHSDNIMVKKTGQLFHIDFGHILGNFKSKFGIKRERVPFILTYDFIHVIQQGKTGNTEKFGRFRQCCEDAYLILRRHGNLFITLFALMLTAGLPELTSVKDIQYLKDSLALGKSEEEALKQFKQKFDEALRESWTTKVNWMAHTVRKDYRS
T2 sequence (P27986 whole entry partner): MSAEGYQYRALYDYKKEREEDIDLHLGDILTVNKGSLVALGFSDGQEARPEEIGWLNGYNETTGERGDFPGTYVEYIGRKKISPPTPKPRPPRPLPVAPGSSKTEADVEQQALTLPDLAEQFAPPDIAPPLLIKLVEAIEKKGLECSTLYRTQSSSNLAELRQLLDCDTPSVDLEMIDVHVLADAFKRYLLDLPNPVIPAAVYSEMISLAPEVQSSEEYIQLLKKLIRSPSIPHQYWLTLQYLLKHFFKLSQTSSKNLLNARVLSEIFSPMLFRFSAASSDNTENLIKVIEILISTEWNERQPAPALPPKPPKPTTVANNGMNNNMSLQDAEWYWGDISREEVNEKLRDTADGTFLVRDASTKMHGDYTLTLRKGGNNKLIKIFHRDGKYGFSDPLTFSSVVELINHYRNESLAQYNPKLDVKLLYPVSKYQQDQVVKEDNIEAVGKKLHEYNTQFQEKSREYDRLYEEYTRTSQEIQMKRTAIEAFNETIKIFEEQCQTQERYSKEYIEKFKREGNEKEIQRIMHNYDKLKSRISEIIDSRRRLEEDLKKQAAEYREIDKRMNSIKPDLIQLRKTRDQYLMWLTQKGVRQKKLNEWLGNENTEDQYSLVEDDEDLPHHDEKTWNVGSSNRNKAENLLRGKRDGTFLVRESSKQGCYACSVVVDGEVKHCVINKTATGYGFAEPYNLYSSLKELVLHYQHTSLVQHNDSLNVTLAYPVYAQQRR
T1 sequence (P42336 whole entry): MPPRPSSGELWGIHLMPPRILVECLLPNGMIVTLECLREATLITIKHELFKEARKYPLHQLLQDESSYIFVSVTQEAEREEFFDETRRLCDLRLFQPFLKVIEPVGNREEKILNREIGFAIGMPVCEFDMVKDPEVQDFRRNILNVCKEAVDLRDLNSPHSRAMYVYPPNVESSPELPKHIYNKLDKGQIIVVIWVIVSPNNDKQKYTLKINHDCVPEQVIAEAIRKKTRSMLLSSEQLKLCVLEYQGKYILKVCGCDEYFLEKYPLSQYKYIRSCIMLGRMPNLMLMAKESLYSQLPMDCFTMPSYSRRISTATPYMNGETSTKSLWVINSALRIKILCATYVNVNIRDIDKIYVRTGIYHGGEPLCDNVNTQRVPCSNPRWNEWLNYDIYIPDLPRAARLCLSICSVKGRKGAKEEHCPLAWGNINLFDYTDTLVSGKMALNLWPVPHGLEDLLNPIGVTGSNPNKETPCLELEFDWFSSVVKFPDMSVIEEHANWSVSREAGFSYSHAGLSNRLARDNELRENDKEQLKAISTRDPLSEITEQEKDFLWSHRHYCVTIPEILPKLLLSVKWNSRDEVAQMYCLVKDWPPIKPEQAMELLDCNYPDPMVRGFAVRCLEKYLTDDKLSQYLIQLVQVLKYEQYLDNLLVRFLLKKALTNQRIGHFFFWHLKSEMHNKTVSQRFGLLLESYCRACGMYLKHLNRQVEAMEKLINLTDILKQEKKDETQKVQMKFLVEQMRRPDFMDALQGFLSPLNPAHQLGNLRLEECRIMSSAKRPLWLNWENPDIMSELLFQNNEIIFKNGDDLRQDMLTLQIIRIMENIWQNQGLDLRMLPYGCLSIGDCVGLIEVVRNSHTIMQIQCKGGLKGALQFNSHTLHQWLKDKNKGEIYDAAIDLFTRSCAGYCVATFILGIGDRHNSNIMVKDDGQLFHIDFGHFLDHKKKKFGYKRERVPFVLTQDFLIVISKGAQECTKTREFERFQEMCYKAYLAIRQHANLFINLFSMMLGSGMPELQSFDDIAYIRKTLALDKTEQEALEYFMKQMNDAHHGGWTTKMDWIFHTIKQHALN
T1 sequence (P27986 whole entry partner): as the sequence (P27986 whole entry partner) above
T4 sequence (P48736 whole entry): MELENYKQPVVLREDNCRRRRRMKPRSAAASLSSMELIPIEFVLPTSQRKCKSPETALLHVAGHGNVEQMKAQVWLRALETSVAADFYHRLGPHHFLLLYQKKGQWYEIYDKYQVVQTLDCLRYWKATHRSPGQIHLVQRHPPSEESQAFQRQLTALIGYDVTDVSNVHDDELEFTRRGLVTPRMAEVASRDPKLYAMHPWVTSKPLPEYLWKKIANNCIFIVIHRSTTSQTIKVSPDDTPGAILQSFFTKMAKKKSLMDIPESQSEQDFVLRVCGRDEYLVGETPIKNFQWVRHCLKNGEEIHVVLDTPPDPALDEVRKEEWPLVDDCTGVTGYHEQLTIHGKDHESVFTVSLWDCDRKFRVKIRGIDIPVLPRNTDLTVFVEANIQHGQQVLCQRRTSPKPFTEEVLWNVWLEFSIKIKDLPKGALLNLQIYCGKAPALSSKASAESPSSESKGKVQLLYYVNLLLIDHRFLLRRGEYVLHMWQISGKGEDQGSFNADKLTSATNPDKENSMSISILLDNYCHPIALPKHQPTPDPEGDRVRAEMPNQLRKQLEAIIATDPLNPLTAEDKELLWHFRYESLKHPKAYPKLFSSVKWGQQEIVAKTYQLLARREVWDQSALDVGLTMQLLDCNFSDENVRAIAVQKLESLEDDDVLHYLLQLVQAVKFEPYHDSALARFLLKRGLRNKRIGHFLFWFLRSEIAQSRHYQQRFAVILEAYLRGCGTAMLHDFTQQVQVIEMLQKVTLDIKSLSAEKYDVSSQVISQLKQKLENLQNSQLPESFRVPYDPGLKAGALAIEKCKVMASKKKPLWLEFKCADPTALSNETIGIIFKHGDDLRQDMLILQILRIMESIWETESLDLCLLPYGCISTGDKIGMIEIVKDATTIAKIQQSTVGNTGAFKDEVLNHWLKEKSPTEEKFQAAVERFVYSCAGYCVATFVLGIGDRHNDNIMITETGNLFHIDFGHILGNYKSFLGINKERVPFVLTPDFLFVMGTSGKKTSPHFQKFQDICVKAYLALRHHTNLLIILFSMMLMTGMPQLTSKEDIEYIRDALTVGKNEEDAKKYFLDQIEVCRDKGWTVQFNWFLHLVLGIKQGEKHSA

Take `C[C@H](NC(=O)c1cnn2cccnc12)c1cc2cccc(Cl)c2c(=O)n1-c1ccc(F)cc1` [Compound 62]: the IC50 in experiment [1] was in the range of 1000 to 10000 nM; in experiment [2], 1000 to 10000 nM; in experiment [3], 1000 to 10000 nM; in experiment [4], 100 to 1000 nM; in experiment [5] it was 100 to 1000 nM; in experiment [6] it was 100 to 1000 nM.

Turning to `C[C@H](NC(=O)c1c(N)nn2cccnc12)c1cc2cccc(C#CCNC(=O)[C@H]3CCC(=O)O3)c2c(=O)n1-c1ccccc1` [Compound 158], the IC50 in experiment [1] was 1000 to 10000 nM; in experiment [2] it was 1000 to 10000 nM; in experiment [3], 1000 to 10000 nM; in experiment [4] it was less than 100 nM; in experiment [5] it was less than 100 nM; in experiment [6], less than 100 nM.

For `C[C@H](NC(=O)c1c(N)nn2cccnc12)c1cc2cccc(-c3ccc(=O)n(C)c3)c2c(=O)n1-c1ccccc1` [Compound 121], the IC50 in experiment [1] is more than 10000 nM; in experiment [2], more than 10000 nM; in experiment [3] it was 100 to 1000 nM; in experiment [4], less than 100 nM; in experiment [5] it was less than 100 nM; in experiment [6], less than 100 nM.

Take `C[C@H](NC(=O)c1c(N)nn2cccnc12)c1cc2cccc(C#CCNC(=O)C3CCCCC3)c2c(=O)n1-c1ccccc1` [Compound 159]: the IC50 in experiment [1] was 1000 to 10000 nM; in experiment [2], 1000 to 10000 nM; in experiment [3] it was 1000 to 10000 nM; in experiment [4] it was 100 to 1000 nM; in experiment [5], less than 100 nM; in experiment [6], less than 100 nM.

`CC(=O)Nc1cccc(-c2cccc3cc([C@H](C)NC(=O)c4c(N)nn5cccnc45)n(-c4ccccc4)c(=O)c23)c1` [Compound 202]: the IC50 in experiment [1] is 1000 to 10000 nM; in experiment [2] it was more than 10000 nM; in experiment [3], 1000 to 10000 nM; in experiment [4] it was 100 to 1000 nM; in experiment [5], 100 to 1000 nM; in experiment [6] it was less than 100 nM.

On to `C[C@H](NC(=O)c1c(N)nn2cccnc12)c1cc2cccc(-c3ccccc3)c2c(=O)n1-c1ccccc1` [Compound 115], for which the IC50 in experiment [1] is 1000 to 10000 nM; in experiment [2], more than 10000 nM; in experiment [3] it was 1000 to 10000 nM; in experiment [4], 100 to 1000 nM; in experiment [5], less than 100 nM; in experiment [6], 100 to 1000 nM.

`COc1cncc(-c2cccc3cc([C@H](C)NC(=O)c4c(N)nn5cccnc45)n(-c4ccccc4)c(=O)c23)c1` [Compound 119]: the IC50 in experiment [1] was 1000 to 10000 nM; in experiment [2], more than 10000 nM; in experiment [3], 100 to 1000 nM; in experiment [4], less than 100 nM; in experiment [5], less than 100 nM; in experiment [6] it was less than 100 nM.

For `C[C@H](NC(=O)c1c(N)nn2cccnc12)c1c(Br)c2cccc(Cl)c2c(=O)n1-c1ccccc1` [Compound 254], the IC50 in experiment [1] is 1000 to 10000 nM; in experiment [2], 1000 to 10000 nM; in experiment [3], 100 to 1000 nM; in experiment [4] it was less than 100 nM; in experiment [5], less than 100 nM; in experiment [6] it was less than 100 nM.

For the compound `C[C@H](NC(=O)c1nc(-c2ccc(S(C)(=O)=O)cc2)cnc1N)c1cc2cccc(Cl)c2c(=O)n1-c1ccccc1` [Compound 90], the IC50 in experiment [1] was more than 10000 nM; in experiment [2] it was more than 10000 nM; in experiment [3], more than 10000 nM; in experiment [4] it was 1000 to 10000 nM; in experiment [5], 100 to 1000 nM; in experiment [6], 1000 to 10000 nM.

On to `CNS(=O)(=O)c1cccc(-c2cnc(N)c(C(=O)N[C@@H](C)c3cc4cccc(Cl)c4c(=O)n3-c3ccccc3)n2)c1` [Compound 83], for which the IC50 in experiment [1] is 1000 to 10000 nM; in experiment [2] it was 100 to 1000 nM; in experiment [3], 1000 to 10000 nM; in experiment [4], 100 to 1000 nM; in experiment [5] it was less than 100 nM; in experiment [6] it was less than 100 nM.

Consider `C[C@H](NC(=O)c1nccnc1N)c1cc2cccc(-c3cccnc3)c2c(=O)n1-c1ccccc1` [Compound 55], for which the IC50 in experiment [1] was more than 10000 nM; in experiment [2], more than 10000 nM; in experiment [3], less than 100 nM; in experiment [4], 1000 to 10000 nM; in experiment [5] it was 1000 to 10000 nM; in experiment [6], less than 100 nM.
